Experimental data from patent publication USRE49575E1, “Method for the preparation of (4S)-4-(4-cyano-2-methoxyphenyl)-5-ethoxy-2,8-dimethyl-l,4-dihydro-1-6-naphthyridine-3-carbox-amide and the purification thereof for use as an active pharmaceutical ingredient” (Bayer Pharma Aktiengesellschaft, priority 2014, dated 2023).

What was measured:
Assay type in all cases: physicochemical
[1] = Stability and moisture absorption: storage at 85% and 97% rel. humidity, evaluated by DSC, TGA and XRPD; details: for mass change: after 12 months
Method: Stability and Moisture Absorption Samples of compound of the formula (I) in crystalline form of polymorph I were stored at 85% and 97% rel. humidity (25° C.). The samples were evaluated after 12 months by DSC, TGA and XRPD. After 12 months, a mass change of <0.1% is observed in both cases. […] According to DSC, TGA and XRPD, no difference exists in compound of the formula (I) in crystalline form of polymorph I.

[2] = TGA, loss of mass on heating; details: up to a temperature of 175° C.
Method: No other phase transitions were observed. A loss of mass of ca. 0.1% was observed up to a temperature of 175° C.

[3] = Storage stability of polymorph I
[4] = 85% and 97% rel. humidity (25° C.), 12 months

absorption of water [1, 4]: no significant absorption of water
difference according to DSC, TGA and XRPD after storage [1, 4]: no difference
mass change ([1]; stored at 85% rel. humidity (25° C.)): < 0.1%
mass change ([1]; stored at 97% rel. humidity (25° C.)): < 0.1%
loss of mass [2]: ca. 0.1%
stability properties ([3]; even at high atmospheric humidity): very good stability properties
storage time without any problem ([3]; solid, crystalline polymorph I): > 2 years
Compound: CCOc1ncc(C)c2c1[C@H](c1ccc(C#N)cc1OC)C(C(N)=O)=C(C)N2 [(4S)-4-(4-cyano-2-methoxyphenyl)-5-ethoxy-2,8-dimethyl-1,4-dihydro-1,6-naphthyridine-3-carboxamide]
